Measurements as given in patent US20170217946A1, “AMINO-SUBSTITUTED ISOXAZOLES” (Bayer Pharma Aktiengesellschaft, priority 2014, published 2017).

Columns and labels:
[1] = tested on: spindle assembly checkpoint (phosphorylated histone H3 on serine 10) in HeLa cells; test: SAC-Formation - Paclitaxel-Induced Assay; assay type: cell-based; details: Homo sapiens, paclitaxel 0.05 μM, 24 h incubation
Description: The spindle assembly checkpoint assures the proper segregation of chromosomes during mitosis. Upon entry into mitosis, chromosomes begin to condensate which is accompanied by the phosphorylation of histone H3 on serine 10. Dephosphorylation of histone H3 on serine 10 begins in anaphase and ends at early telophase. Accordingly, phosphorylation of histone H3 on serine 10 can be utilized as a marker of cells in mitosis. Nocodazole is a microtubule destabilizing substance. Paclitaxel is a microtubule stabilizing compound. Thus, nocodazole as well as paclitaxel interfere with microtubule dynamics and mobilize the spindle assembly checkpoint. […] The mitotic breakthrough can be detected by the decrease of cells with phosphorylation of histone H3 on serine 10. This decline is used as a marker to determine the capability of compounds of the present invention to induce a mitotic breakthrough. The typical morphological alteration of nuclei with a prematurely completed mitosis after SAC-inhibition can be monitored via image analysis routines supporting those findings.
The nocodazole and paclitaxel variations were used to focus on compounds that are capable of inhibiting a SAC induced by both microtubule destabilization as well as microtubule stabilization. […]
Cultivated cells of the human cervical tumor cell line HeLa (ATCC CCL-2) were plated at a density of 1000 cells/well in a 1536-well microtiter plate in 2 μl PAA Ham's F12 Medium supplemented with 1% (v/v) glutamine, 1% (v/v) penicillin, 1% (v/v) streptomycin and 10% (v/v) fetal calf serum. […] Images were acquired with a PERKIN ELMER OPERA™ High-Content Analysis reader. Images were analyzed with image analysis software MetaXpress™ from Molecular devices utilizing the Mitotic Index application module. In this assay both labels HOECHST 33342 and phosphorylated Histone H3 on serine 10 were measured. […] The raw assay data were further analyzed by four-parametric hill equation using Genedata's Assay Analyzer and Condoseo software.

[2] = tested on: HeLa cells; test: Proliferation assay (crystal violet); assay type: cell-based; details: Homo sapiens, 96 h, 4 days incubation, read-out: Inhibition of proliferation HeLa IC50
Description: Cultivated tumor cells (cells were ordered from ATCC, except HeLa-MaTu and HeLa-MaTu-ADR, which were ordered from EPO-GmbH, Berlin) were plated at a density of 1000 to 5000 cells/well, depending on the growth rate of the respective cell line, in a 96-well multititer plate in 200 μL of their respective growth medium supplemented 10% fetal calf serum. After 24 hours, the cells of one plate (zero-point plate) were stained with crystal violet (see below), while the medium of the other plates was replaced by fresh culture medium (200 μl), to which the test substances were added in various concentrations (0 μM, as well as in the range of 0.001-10 μM; the final concentration of the solvent dimethyl sulfoxide was 0.5%). The cells were incubated for 4 days in the presence of test substances. Cell proliferation was determined by staining the cells with crystal violet: the cells were fixed by adding 20 μl/measuring point of an 11% glutaric aldehyde solution for 15 minutes at room temperature. After three washing cycles of the fixed cells with water, the plates were dried at room temperature. The cells were stained by adding 100 μl/measuring point of a 0.1% crystal violet solution (pH 3.0). After three washing cycles of the stained cells with water, the plates were dried at room temperature. The dye was dissolved by adding 100 μl/measuring point of a 10% acetic acid solution. Absorption was determined by photometry at a wavelength of 595 nm. The change of cell number, in percent, was calculated by normalization of the measured values to the absorption values of the zero-point plate (=0%) and the absorption of the untreated (0 μm) cells (=100%). The IC50 values were determined by means of a 4 parameter fit.

Row | SMILES | IC50 [1] | IC50 [2]
1 | Cc1noc(Nc2cnc(C(F)(F)F)cn2)c1C(=O)Nc1ccc(OC2CCN(CCC(F)(F)F)CC2)nc1 [Example 1a, 3-Methyl-5-{[5-(trifluoromethyl)pyrazin-2-yl]amino}-N-(6-{[1-(3,3,3-trifluoropropyl)-piperidin-4-yl]oxy}pyridin-3-yl)-1,2-oxazole-4-carboxamide] | 0.76 µM | 1.9 µM
2 | Cc1noc(Nc2cnc(C(=O)NC3CCN(CC(F)F)CC3)cn2)c1C(=O)Nc1ccc(F)c(F)c1 [Example 1b, N-[1-(2,2-Difluoroethyl)piperidin-4-yl]-5-({4-[(3,4-difluorophenyl)carbamoyl]-3-methyl-1,2-oxazol-5-yl}amino)pyrazine-2-carboxamide] | 0.63 µM | 3.4 µM
3 | Cc1noc(Nc2cnc(C(F)(F)F)cn2)c1C(=O)Nc1ccc(F)c(F)c1 [Example 1c, N-(3,4-Difluorophenyl)-3-methyl-5-{[5-(trifluoromethyl)pyrazin-2-yl]amino}-1,2-oxazole-4-carboxamide] | 0.18 µM | 0.94 µM
